Measurements taken from patent EP2364976B1, “S1P receptor modulating compounds and use thereof” (EPIX Pharmaceuticals, Inc., priority 2007, dated 2007).
“And” between values parts separate entries of the source, which are not always exact repeats. Equal entries are not always repeated.

Target: T1, hS1P1 (Homo sapiens, UniProt P21453)
T1 construct: expressed in transfected cells
Assay: hS1P1 EC50 (S1P receptor Ca2+ flux protocol, FLIPR, CHO K1 Gqi5 cells)
Assay type: cell-based
Settings: several values per compound = repeat determinations as printed
Procedure, shortened: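 Calcium flux (FLIPR) in CHO K1 cells stably expressing Gqi5 and N-terminally V5-tagged human S1P1, loaded with calcium dye 90 min at RT. Peak fluorescence recorded 90 s after compound addition (10-point 3x dilution, 0.25% DMSO), normalized to 200 nM S1P (100%) and buffer (0%); EC50 from 4-parameter fit.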

T1 sequence (P21453 whole entry): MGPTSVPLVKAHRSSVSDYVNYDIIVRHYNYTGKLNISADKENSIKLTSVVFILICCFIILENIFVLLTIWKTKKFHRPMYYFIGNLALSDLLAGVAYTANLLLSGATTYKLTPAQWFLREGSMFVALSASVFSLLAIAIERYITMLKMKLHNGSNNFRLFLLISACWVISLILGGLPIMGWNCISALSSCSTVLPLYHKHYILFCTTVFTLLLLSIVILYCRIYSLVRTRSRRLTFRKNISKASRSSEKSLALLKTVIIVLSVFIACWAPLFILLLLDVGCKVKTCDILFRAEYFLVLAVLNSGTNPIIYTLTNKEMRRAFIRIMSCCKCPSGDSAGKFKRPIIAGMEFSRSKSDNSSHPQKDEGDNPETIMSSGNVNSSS

| Structure (SMILES) | EC50 |
| --- | --- |
| O=C(O)C1CN(Cc2ccc(-c3cc4cc(N5CCOCC5)ccc4o3)c(F)c2)C1 [Reference Compound 53, 1-((3-fluoro-4-(5-morpholinobenzofuran-2-yl)phenyl)methyl)azetidine-3-carboxylic acid] | 2090 nM |
| O=C(O)CCNC1Cc2ccc(-c3cc4cc(Cc5ccccc5)ccc4o3)cc2C1 (stereo not shown) [Reference Compound 45, 3-(5-(5-benzylbenzofuran-2-yl)-2,3-dihydro-1H-inden-2-ylamino)-propanoic acid] | 807 nM |
| COc1cc(CN2CC(C(=O)O)C2)ccc1-c1cc2cc(C3CCCC3)ccc2o1 [Reference Compound 47, 1-((4-(5-cyclopentylbenzofuran-2-yl)-3-methoxyphenyl)methyl)azetidine-3-carboxylic acid] | 1070 nM |
| O=C(O)CCNCc1ccc(-c2cc3cc(C4CCCC4)ccc3o2)c(F)c1 [Reference Compound 58, 3-(4-(5-cyclopentylbenzofuran-2-yl)-3-fluorobenzylamino)propanoic acid] | 1070 nM |
| O=C(O)[C@H]1CCCN(Cc2ccc(-c3cc4cc(Cc5ccccc5)ccc4o3)c(F)c2)C1 [Reference Compound 63, (3S)-1-((4-(5-Benzylbenzofuran-2-yl)-3-fluorophenyl)methyl)piperidine-3-carboxylic acid] | 3340 nM |
| O=C(O)C1CN(Cc2ccc(-c3cc4cc(Sc5ccccc5)ccc4o3)c(F)c2)C1 [Reference Compound 64] | 142 nM |
| O=C(O)C1CN(Cc2ccc(-c3cc4cc(Cc5ccccc5)ccc4o3)nc2)C1 [Reference Compound 32, 1-((6-(5-benzylbenzofuran-2-yl)pyridin-3-yl)methyl)azetidine-3-carboxylic acid] | 2600 nM and 516 nM |
| O=C(O)C1CN(Cc2ccc(-c3cc4cc(Cc5ccccc5)ccc4o3)cc2)C1 [Reference Compound 4, 1-((4-(5-Benzylbenzofuran-2-yl)phenyl)methyl)azetidine-3-carboxylic acid] | 400 nM and 460 nM and 420 nM and 107 nM |
| O=C(O)C1CN(Cc2ccc(-c3cc4cc(C5CCCCC5)ccc4o3)c(F)c2)C1 [Reference Compound 27] | 160 nM and 361 nM |
| O=C(O)C1CCN(Cc2ccc(-c3cc4cc(Cc5ccccc5)ccc4o3)cc2)CC1 [Reference Compound 9, 1-(4-(5-Benzylbenzofuran-2-yl)phenyl)methyl piperldine4-carboxylic acid] | 4800 nM |
| CCCCOc1ccc2oc(-c3ccc(CN4CCC(C(=O)O)CC4)cc3)cc2c1 [Reference Compound 16] | 17000 nM |
| O=C(O)C1CN(Cc2ccc(-c3cc4cc(C5CCOCC5)ccc4o3)c(F)c2)C1 [Reference Compound 61] | 207 nM |
| O=C(O)C1CN(Cc2ccc(-c3cc4cc(COC5CCC5)ccc4o3)c(F)c2)C1 [Reference Compound 67, 1-(4-(5-(Cyclobutoxymethyl)benzofuran-2-yl)-3-fluoro-benzyl)azetidine-3-carboxylic acid] | 25 nM |

More lines, in order of falling EC50, values ahead:

| EC50 | Structure (SMILES) |
| --- | --- |
| 630 nM | CC(C)CCc1ccc2oc(-c3ccc(CN4CC(C(=O)O)C4)cc3)cc2c1 [Reference Compound 20, 1-((4-(5-Isopentylbenzofuran-2-yl)phenyl)methyl)azetidine-3-carboxylic acid] |
| 580 nM | O=C(O)C1CN(Cc2ccc(-c3cc4cc(CCc5ccccc5)ccc4o3)cc2)C1 [Reference Compound 11, 1-((4-(5-phenethylbenzofaran-2-yl)phenyl)methyl)azetidine-3-carboxylic acid] |
| 558 nM | O=C(O)C1CN(Cc2ccc(-c3cc4cc(C5CCCC5)ccc4o3)c(Cl)c2)C1 [Reference Compound 51, 1-((3-chloro-4-(5-cyclopentylbenzofuran-2-yl)phenyl)methyl)azetidine-3-carboxylic acid] |
| 409 nM | O=C(O)C1CN(Cc2ccc(-c3cc4nc(Cc5ccccc5)ccc4o3)c(F)c2)C1 [Reference Compound 109, 1-((4-(5-Benzylfuro[3,2-b]pyridin-2-yl)-3-fluorophenyl)methyl)azetidine-3-carboxylic acid] |
| 365 nM | CC(C)(c1ccccc1)c1ccc2oc(-c3ccc(CN4CC(C(=O)O)C4)cc3F)cc2c1 [Reference Compound 97, 1-((3-Fluoro-4-(5-(2-phenylpropan-2-yl)benzofuran-2-yl)phenyl)methyl)azetidine-3-carboxylic acid] |
| 105 nM | O=C(O)C1(O)CN(Cc2ccc(-c3cc4cc(Cc5ccccc5)ccc4o3)c(F)c2)C1 [Reference Compound 88, 1-((4-(5-Benzylbenzofuran-2-yl)-3-fluorophenyl)methyl)-3-hydroxyazetidine-3-carboxylic acid] |
| 94 nM | O=C(O)C1CN(Cc2ccc(-n3cc4cc(Cc5ccccc5)ccc4n3)c(F)c2)C1 [Reference Compound 87, 1-(4-(5-Benzyl-2H-indazol-2-yl)-3-fluorobenzyl)azetidine-3-carboxylic acid] |
| 59 nM | O=C(O)C1CN(Cc2ccc(-c3ccc4oc(Cc5ccccc5)cc4c3)c(F)c2)C1 [Reference Compound 80, 1-(4-(2-Benzylbenzofuran-5-yl)-3-fluorobenzyl)azetidine-3-carboxylic acid] |
| 53 nM | O=C(O)C1CN(Cc2ccc(-c3cc4cc(Cc5ccc(F)cc5)ccc4o3)c(F)c2)C1 [Reference Compound 73, 1-(3-fluoro-4-(5-(4-fluorobenzyl)benzofuran-2-yl)benzyl)azetidine-3-carboxylic acid] |
| 31 nM | O=C(O)C1CN(Cc2ccc(-c3cc4cc(Cc5ccccn5)ccc4o3)c(F)c2)C1 [Reference Compound 93, 1-((3-Fluoro-4-(5-(pyridin-2-ylmethyl)benzofuran-2-yl)phenyl)methyl)azetidine-3-carboxylic acid] |
| 27 nM | O=C(O)C1CN(Cc2ccc(-c3cc4cc(Cc5ccccc5)cnc4o3)c(F)c2)C1 [Inventive Compound 98, 1-((3-Fluoro-4-(5-(phenylmethyl)furo[2,3-b]pyridin-2-yl)phenyl)methyl)-3-azetidinecarboxylic acid] |
| 13 nM | O=C(O)C1CN(Cc2ccc(-c3cc4cc(C(F)(F)c5ccccc5)ccc4o3)c(F)c2)C1 [Reference Compound 91, 1-((4-(5-(Difluoro(phenyl)methyl)benzofuran-2-yl)-3-fluorophenyl)methyl)azetidine-3-carboxylic acid] |
| 12 nM | O=C(O)C1CN(Cc2ccc(-c3nc4cc(Oc5ccccc5)ccc4o3)c(F)c2)C1 [Reference Compound 116, 1-((3-Fluoro-4-(5-phenoxybenzo[d]oxazol-2-yl)phenyl)methyl)azetidine-3-carboxylic acid] |
| 11 nM | O=C(O)C1CN(Cc2ccc(-c3cc4cc(Cc5ccccc5)ccc4s3)c(F)c2)C1 [Reference Compound 81, 1-(4-(5-Benzylbenzo[b]thiophen-2-yl)-3-fluorobenzyl)azetidine-3-carboxylic acid] |
| 7 nM | O=C(O)C1CN(Cc2ccc(-c3cc4ccc(Cc5ccccc5)cc4o3)c(F)c2)C1 [Reference Compound 92, 1-((4-(6-Benzylbenzofuran-2-yl)-3-fluorophenyl)methyl)azetidine-3-carboxylic acid] |
